In paper PMC11618052, “Design, synthesis, and antiproliferative activity of new 1,2,3-triazole/quinazoline-4-one hybrids as dual EGFR/BRAF^V600E inhibitors” (RSC Advances, 2024):

How the values were obtained:
[1] = system: four human cancer cell lines (A-549, MCF-7, Panc-1, HT-29); assay: Antiproliferative MTT assay, mean over the four cancer cell lines; type: cell-based; conditions: for GI50: mean IC50 over A-549, MCF-7, Panc-1, HT-29
Experimental: (§1) The median inhibitory concentration (IC50) and GI50 (mean IC50) for the four cancer cell lines were calculated. Appendix A ^† contains more details. […]

breast cancer (MCF-7) = assay: Antiproliferative MTT assay, MCF-7; type: cell-based; conditions: Homo sapiens, MCF7, MCF-7 breast cancer cells, read-out: Antiproliferative activity IC50 ± SEM, MCF-7
Experimental: as §1

colon cancer (HT-29) = assay: Antiproliferative MTT assay, HT-29; type: cell-based; conditions: Homo sapiens, HT-29 colon cancer cells, read-out: Antiproliferative activity IC50 ± SEM, HT-29
Experimental: as §1

EGFR = target: T1, EGFR (Homo sapiens, UniProt P00533); assay: EGFR-TK inhibitory assay; type: biochemical; conditions: read-out: EGFR inhibition IC50 ± SEM
T1 construct: 645–1186; His6 (N); made in house; host or cells: Sf-9 insect cells (baculovirus; pBlueBacHis2B / pFASTBacHTc)
Experimental: Sf-9 cells were infected for 72h for protein expression. […]
centrifugation for 20 min.
Histidine-linked proteins were first eluted with 250 and then […]
using wash buffer. Europium-tagged antiphosphotyrosine antibody (75 µL, 400 ng) was added to each well followed by incubation of 1h and then washing of the plates using buffer. The enhancement solution was added to each well and the signal was recorded at excitation and […]
The autophosphorylation percentage inhibition by compounds was calculated using the following equation: […]

[2] = system: pancreatic cancer (Panc-1); assay: Antiproliferative MTT assay, Panc-1; type: cell-based; conditions: Homo sapiens, Panc-1 pancreatic cancer cells, read-out: Antiproliferative activity IC50 ± SEM, Panc-1
Experimental: as §1

[3] = Cell viability MTT assay on MCF-10A normal cells; type: cell-based; conditions: human, MCF-10A normal mammary gland epithelial cells, MCF-10A cells, four days of incubation
Experimental: The viability of new compounds 8a–t was evaluated using the MCF-10A normal human mammary gland epithelial cell line. The cell viability of compounds 8a–t was examined using the MTT assay[36] after four days of incubation with MCF-10A cells. For more details, see Appendix A (ESI file). ^† […]
We evaluated the viability of new compounds 8a–t using the MCF-10A normal human mammary gland epithelial cell line. The cell viability of compounds 8a–t was examined using the MTT assay[36] after four days of incubation with MCF-10A cells.
4.2. Biological evaluation
4.2.1. Cytotoxic activity using MTT Assay and evaluation of IC 50
MTT assay was carried out to study the effect of compounds on mammary epithelial cells (MCF-10A). The medium in which cells were propagated contained Dulbecco's modified Eagle's medium (DMEM)/ Ham's F-12 medium (1:1) supplemented with epidermal growth factor (20 ng/mL), hydrocortisone (500 ng/mL), insulin (10 μg/mL), 2 mM glutamine and 10% foetal calf serum.
After every 2-3 days, the cells were passaged using trypsin ethylenediamine tetra acetic acid (EDTA). The cells were seeded at a density of 10^4 cells mL-1 in flat-bottomed culture plates containing 96 wells each. After 24 h, medium was removed from the plates and the compounds in (in 0.1% DMSO) were added (in 200 μL medium to yield a final concentration of 0.1% v/v) to the wells of plates. A single compound was designated with four wells followed by incubation of plates for 96h at 37°C. After incubation, medium was removed completely from the plates followed by addition of MTT (0.4 mg/mL in medium) to each well and subsequent incubation of plates for 3h. MTT (along with the medium) was removed and DMSO (150μL) was added to each well of the culture plates, followed by vortexing and subsequent measurement of absorbance (at 540 nm) using microplate reader. The data are shown as percentage inhibition of proliferation in comparison with controls containing 0.1% DMSO. […]

lung cancer (A-549) = assay: Antiproliferative MTT assay, A-549; type: cell-based; conditions: Homo sapiens, A549, A-549 lung cancer cells, read-out: Antiproliferative activity IC50 ± SEM, A-549
Experimental: as §1

BRAF^V600E = BRAF^V600E kinase inhibitory assay
Sequence of BRAF^V600E (P28028 whole entry V585E): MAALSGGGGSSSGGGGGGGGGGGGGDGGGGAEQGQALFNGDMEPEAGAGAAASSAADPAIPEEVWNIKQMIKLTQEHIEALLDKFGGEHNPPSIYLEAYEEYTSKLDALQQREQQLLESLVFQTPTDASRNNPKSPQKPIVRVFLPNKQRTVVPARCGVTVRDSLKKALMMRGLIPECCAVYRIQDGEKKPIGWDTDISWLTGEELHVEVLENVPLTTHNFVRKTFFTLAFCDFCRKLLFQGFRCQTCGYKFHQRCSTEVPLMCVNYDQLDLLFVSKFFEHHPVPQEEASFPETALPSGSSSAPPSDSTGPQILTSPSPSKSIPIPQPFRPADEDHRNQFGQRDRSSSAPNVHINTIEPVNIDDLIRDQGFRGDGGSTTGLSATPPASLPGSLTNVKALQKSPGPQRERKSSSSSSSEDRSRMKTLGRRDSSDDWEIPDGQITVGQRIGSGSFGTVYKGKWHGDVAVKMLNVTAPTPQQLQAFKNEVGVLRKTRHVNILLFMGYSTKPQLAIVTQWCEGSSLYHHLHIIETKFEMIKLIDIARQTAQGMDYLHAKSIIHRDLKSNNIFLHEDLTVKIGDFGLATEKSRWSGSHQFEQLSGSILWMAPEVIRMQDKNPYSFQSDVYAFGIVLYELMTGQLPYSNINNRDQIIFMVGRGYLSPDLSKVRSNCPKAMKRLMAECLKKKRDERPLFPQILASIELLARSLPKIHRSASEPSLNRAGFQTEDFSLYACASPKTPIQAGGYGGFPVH
Experimental: V600E mutant BRAF kinase assay was performed to investigate the activity of tested compounds against BRAF. Mouse full-length GST-tagged BRAFV600E (7.5 ng, Invitrogen, PV3849) was pre-incubated with drug (1 µL) and assay dilution buffer (4 µL) for 60 min at 25 °C. In assay dilution buffer, a solution (5 µL) containing MgCl2 (30 mM), ATP (200 µM), recombinant human full length (200 ng) and N-terminal His-tagged MEK1 (Invitrogen) was added to start the assay, subsequent to incubation for 25 min at 25 °C. The assay was stopped using 5X protein denaturing buffer (LDS) solution (5 µL). To further denature the protein, heat (70° C) was applied for 5 min.
10 µL of each reaction was loaded into the precast plates and electrophoresis was allowed to proceed. After completion of electrophoresis, the front part of the precast gel plate (holding hot ATP) was cut and afterwards cast-off. The dried gel was developed using a phosphor screen. A

T1 sequence (P00533 669-1210): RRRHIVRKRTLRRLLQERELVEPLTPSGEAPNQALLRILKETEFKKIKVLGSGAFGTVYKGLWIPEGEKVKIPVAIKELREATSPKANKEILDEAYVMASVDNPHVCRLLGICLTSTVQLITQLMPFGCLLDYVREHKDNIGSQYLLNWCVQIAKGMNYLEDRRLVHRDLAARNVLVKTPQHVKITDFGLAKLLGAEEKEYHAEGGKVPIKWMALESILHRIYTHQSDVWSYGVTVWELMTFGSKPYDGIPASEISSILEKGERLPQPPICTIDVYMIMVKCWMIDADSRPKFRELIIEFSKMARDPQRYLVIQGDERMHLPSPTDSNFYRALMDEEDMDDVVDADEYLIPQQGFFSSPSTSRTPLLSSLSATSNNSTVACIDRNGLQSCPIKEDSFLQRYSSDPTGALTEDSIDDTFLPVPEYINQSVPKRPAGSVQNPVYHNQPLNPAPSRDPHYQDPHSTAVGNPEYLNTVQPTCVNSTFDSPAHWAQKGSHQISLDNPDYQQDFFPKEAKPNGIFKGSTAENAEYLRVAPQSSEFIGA

Row | GI50 ([1]; Homo sapiens) [nM] | GI50 [1] [nM] | IC50 (breast cancer (MCF-7)) [nM] | IC50 (colon cancer (HT-29)) [nM] | IC50 (EGFR) [nM] | IC50 [2] [nM] | IC50 (lung cancer (A-549)) [nM] | IC50 (BRAF^V600E) [nM] | Fold less potent than compound 8g (GI50) ([1]; GI50 versus methoxy derivative 8g) | SMILES | viability at 4 days, 50 µM [3] [%]
1 | 33 | 29 | 26 ± 2 | 30 ± 2 | 78 ± 5 | 31 ± 2 | 29 ± 2 | 61 ± 5 |  | Cc1cccc(-n2c(SCc3cn(-c4ccc(Cl)cc4)nn3)nc3ccccc3c2=O)c1 [Compound 8j, 2-(((1-(4-Chlorophenyl)-1H-1,2,3-triazol-4-yl)methyl)thio)-3-(m-tolyl)quinazolin-4(3H)-one] | 87
2 | 47 |  | 42 ± 3 | 49 ± 3 |  | 49 ± 3 | 47 ± 3 |  |  | COc1ccc(-n2cc(CSc3nc4ccccc4c(=O)n3-c3ccccc3)nn2)cc1 [Compound 8c, 2-(((1-(4-Methoxyphenyl)-1H-1,2,3-triazol-4-yl)methyl)thio)-3-phenylquinazolin-4(3H)-one] | 86
3 | 89 |  | 85 ± 8 | 92 ± 8 |  | 92 ± 8 | 88 ± 8 |  | 4 | Cc1ccc(-n2c(SCc3cn(-c4ccccc4)nn3)nc3ccccc3c2=O)cc1 [Compound 8e, 2-(((1-Phenyl-1H-1,2,3-triazol-4-yl)methyl)thio)-3-(p-tolyl)quinazolin-4(3H)-one] | 90
4 | 61 |  | 56 ± 5 | 64 ± 5 |  | 64 ± 5 | 61 ± 5 |  |  | O=c1c2ccccc2nc(SCc2cn(-c3ccccc3)nn2)n1-c1ccccc1 [Compound 8a, 2-(((1-Phenyl-1H-1,2,3-triazol-4-yl)methyl)thio)-3-phenyl quinazolin-4(3H)-one] | 89
5 | 85 |  | 80 ± 7 | 87 ± 7 |  | 87 ± 7 | 84 ± 7 |  |  | C=CCn1c(SCc2cn(-c3ccc(C)cc3)nn2)nc2ccccc2c1=O [Compound 8t, 2-(((1-(p-Tolyl)-1H-1,2,3-triazol-4-yl)methyl)thio)-3-allyl quinazolin-4(3H)-one] | 90
6 | 37 |  | 34 ± 3 | 39 ± 3 | 89 ± 5 | 38 ± 3 | 37 ± 3 | 69 ± 5 |  | Cc1ccc(-n2c(SCc3cn(-c4ccc(Cl)cc4)nn3)nc3ccccc3c2=O)cc1 [Compound 8f, 2-(((1-(4-Chlorophenyl)-1H-1,2,3-triazol-4-yl)methyl)thio)-3-(p-tolyl)quinazolin-4(3H)-one] | 87
7 | 53 |  | 48 ± 4 | 56 ± 4 |  | 56 ± 4 | 53 ± 4 |  |  | Cc1ccc(-n2cc(CSc3nc4ccccc4c(=O)n3-c3ccccc3)nn2)cc1 [Compound 8d, 2-(((1-(p-Tolyl)-1H-1,2,3-triazol-4-yl)methyl)thio)-3-phenylquinazolin-4(3H)-one] | 89
8 | 41 |  | 36 ± 3 | 44 ± 3 |  | 42 ± 3 | 40 ± 3 |  |  | O=c1c2ccccc2nc(SCc2cn(-c3ccc(Cl)cc3)nn2)n1-c1ccccc1 [Compound 8b, 2-(((1-(4-Chlorophenyl)-1H-1,2,3-triazol-4-yl)methyl)thio)-3-phenyl quinazolin-4(3H)-one] | 90
9 | 65 |  | 59 ± 5 | 68 ± 6 |  | 68 ± 6 | 65 ± 5 |  |  | Cc1cccc(-n2c(SCc3cn(-c4ccccc4)nn3)nc3ccccc3c2=O)c1 [Compound 8i, 2-(((1-Phenyl-1H-1,2,3-triazol-4-yl)methyl)thio)-3-(m-tolyl)quinazolin-4(3H)-one] | 90
10 | 72 |  | 68 ± 6 | 74 ± 6 |  | 74 ± 6 | 72 ± 6 |  |  | CCn1c(SCc2cn(-c3ccccc3)nn2)nc2ccccc2c1=O [Compound 8m, 2-(((1-Phenyl-1H-1,2,3-triazol-4-yl)methyl)thio)-3-ethyl quinazolin-4(3H)-one] | 90
11 | 94 |  | 89 ± 8 | 96 ± 8 |  | 96 ± 8 | 93 ± 8 |  |  | C=CCn1c(SCc2cn(-c3ccccc3)nn2)nc2ccccc2c1=O [Compound 8q, 2-(((1-Phenyl-1H-1,2,3-triazol-4-yl)methyl)thio)-3-allyl quinazolin-4(3H)-one] | 87
12 | 33 |  | 29 ± 2 | 35 ± 2 | 83 ± 5 | 36 ± 2 | 33 ± 2 | 64 ± 5 |  | Cc1ccc(-n2cc(CSc3nc4ccccc4c(=O)n3-c3cccc(C)c3)nn2)cc1 [Compound 8l, 2-(((1-(p-Tolyl)-1H-1,2,3-triazol-4-yl)methyl)thio)-3-(m-tolyl)quinazolin-4(3H)-one] | 87
13 | 80 |  | 75 ± 6 | 84 ± 7 |  | 81 ± 7 | 79 ± 6 |  |  | C=CCn1c(SCc2cn(-c3ccc(Cl)cc3)nn2)nc2ccccc2c1=O [Compound 8r, 2-(((1-(4-Chlorophenyl)-1H-1,2,3-triazol-4-yl)methyl)thio)-3-allyl quinazolin-4(3H)-one] | 90
14 | 76 |  | 71 ± 6 | 79 ± 6 |  | 78 ± 6 | 75 ± 6 |  |  | CCn1c(SCc2cn(-c3ccc(Cl)cc3)nn2)nc2ccccc2c1=O [Compound 8n, 2-(((1-(4-Chlorophenyl)-1H-1,2,3-triazol-4-yl)methyl)thio)-3-ethyl quinazolin-4(3H)-one] | 92
15 | 82 |  | 77 ± 7 | 85 ± 7 |  | 84 ± 7 | 82 ± 7 |  |  | CCn1c(SCc2cn(-c3ccc(C)cc3)nn2)nc2ccccc2c1=O [Compound 8p, 2-(((1-(p-Tolyl)-1H-1,2,3-triazol-4-yl)methyl)thio)-3-ethylquinazolin-4(3H)-one] | 86
16 | 43 |  | 39 ± 3 | 45 ± 3 |  | 46 ± 3 | 42 ± 3 |  |  | COc1ccc(-n2cc(CSc3nc4ccccc4c(=O)n3-c3cccc(C)c3)nn2)cc1 [Compound 8k, 2-(((1-(4-Methoxyphenyl)-1H-1,2,3-triazol-4-yl)methyl)thio)-3-(m-tolyl)quinazolin-4(3H)-one] | 85
17 | 57 |  | 53 ± 4 | 59 ± 5 |  | 59 ± 5 | 57 ± 5 |  |  | C=CCn1c(SCc2cn(-c3ccc(OC)cc3)nn2)nc2ccccc2c1=O [Compound 8s, 2-(((1-(4-Methoxyphenyl)-1H-1,2,3-triazol-4-yl)methyl)thio)-3-allyl quinazolin-4(3H)-one] | 91
18 | 70 |  | 63 ± 5 | 74 ± 6 |  | 74 ± 6 | 69 ± 5 |  |  | CCn1c(SCc2cn(-c3ccc(OC)cc3)nn2)nc2ccccc2c1=O [Compound 8o, 2-(((1-(4-Methoxyphenyl)-1H-1,2,3-triazol-4-yl)methyl)thio)-3-ethyl quinazolin-4(3H)-one] | 89

Row | SMILES | GI50 ([1]; Homo sapiens) [nM] | GI50 [1] [nM] | IC50 (breast cancer (MCF-7)) [nM] | IC50 (colon cancer (HT-29)) [nM] | IC50 (EGFR) [nM] | IC50 [2] [nM] | IC50 (lung cancer (A-549)) [nM] | IC50 (BRAF^V600E) [nM] | Fold less potent than compound 8g (GI50) ([1]; GI50 versus methoxy derivative 8g) | viability at 4 days, 50 µM [3] [%]
19 | C#Cc1cccc(Nc2ncnc3cc(OCCOC)c(OCCOC)cc23)c1 [Erlotinib, reference compound] |  |  | 40 ± 3 | 30 ± 3 |  | 30 ± 3 | 30 ± 3 |  |  | 
